Patent US20090311214A1, “COMPOSITIONS AND METHODS FOR THE INNATE IMMUNE RESPONSE PATHWAY” (UNIVERSITY OF MARYLAND, BALTIMORE, priority 2008, published 2009)
Entries after “also recorded” stand apart in the source; their conditions may differ.

Tests used:
Type in all cases: cell-based, human
monocytes [1] = assay: Purified monocytes pretreated with IL-1ra before PTG or β-glucan
Procedure: To better understand the contribution of IL-1 signaling in the IL-23/TH17 innate response to PTG in monocyte and immDC populations, we pretreated monocytes, immDC and IFNγ-treated immDC with the naturally occurring anti-inflammatory IL-1 receptor antagonist (IL-1ra) for 1 h prior to stimulation with PTG or β-glucan as a positive control, or incubated with increasing doses of exogenous IL-1β for 20 h. […] Contradictory to the monocyte response, addition of IL-1ra or IL-1β to IFNγ-treated immDC had no effect on the IL-23/TH17 profile induced by PTG exposure (FIG. 3D), providing further indication that monocytes exposed to gluten and not their progeny DC have the potential to activate autoreactive memory TH17 cells. Indeed, other groups have reported in human studies that activated monocytes, which produce IL-1β and IL-23, are the best inducers of TH17 cells (Evans et al., Proc. Natl. Acad. Sci., U.S.A., 104(43):17034-17039 (2007)).
(§1) Elutriated monocyte cultures. 5×10^5 monocytes/ml were cultured in cRPMI with and without 100 μg/ml PTG, 100 μg/ml β-glucan, or 0.5-50 ng/ml rhIL-1β in 96 well U-bottom plates at 37° C. in 5% CO2 for 20 h. Alternatively, 5×10^5 monocytes/ml were incubated with 0.5 μg/ml rhIL-1ra at 37° C. in 5% CO2 for 1 h then cultured with and without 100 μg/ml PTG or β-glucan for an additional 20 h. Cell-free culture supernatants were harvested for cytokine and chemokine analysis.
(§2) Cytokine & chemokine analysis. Cell-free culture supernatants were analyzed for IL-1β, IL-1ra, IL-6, IL-12p70, IFNγ, TNFα (Bio-Plex Cytokine Assay kit, Bio-Rad) or IL-1β, IL-23 (ELISA kit, eBiosciences), IL-1ra and CCL20 (Quantikine ELISA kit, R & D Systems) following the manufacturers' protocols. Appropriate standard curves were included in each assay.

PBMC [2] = assay: PBMC pretreated with IL-1ra before stimulation with PTG or β-glucan
Procedure: Considering the essential role for IL-1β in the IL-23/TH17 innate response in purified monocytes, we predicted that IL-1β regulates the cytokine profile triggered by PTG and β-glucan in whole PBMC as well. To this end, PBMC were pretreated with IL-1ra for 1 h prior to stimulation with PTG or β-glucan, or incubated with 5 ng/ml IL-1β alone for 20 h.
(§3) PBMC cultures. PBMC from CD patients and HLA-DQ2^+ healthy controls was tested as follows. 10^6 PBMC/ml were incubated in RPMI-1640 supplemented with 10% heat inactivated hAB, 1% L-glutamine, 1% Pen-Strep and 20 mM Hepes Buffer (cRPMI) with and without PTG, β-glucan, 5 ng/ml rhIL-1β, or 10 μg/ml pooled synthetic 20 mers of α-gliadin in 96 well U-bottom plates (Denville Scientific Inc.) at 37° C. in 5% CO2 for 6, 24, 48, or 72 h. Alternatively, 10^6 PBMC/ml were incubated with 0.5 μg/ml rhIL-1ra at 37° C. in 5% CO2 for 1 h then cultured with and without 100 μg/ml PTG or 500 μg/ml β-glucan for an additional 20 h. Cell-free culture supernatants were harvested for cytokine and chemokine analysis.
as §2

IFNγ-treated immDC = IFNγ-treated immDC exposed to PTG with or without IL-1ra or IL-1β; details: addition to IFNγ-treated immDC
Procedure: IL-23 is only secreted by activated APC such as monocytes, macrophages and DC, which reduces the number of possible cell sources considerably. To determine which of these cell populations was the source of IL-23 in response to PTG, purified lymphocytes, monocytes, or monocyte-derived DC cultured with GM-CSF and IL-4, were incubated in the presence or absence of PTG for 24 h, at which time supernatants were collected for IL-23, IL-1β, IL-6, IFNγ and TNFα analysis. […] Since neither PTG nor β-glucan activated cytokine production in DC differed from monocytes, we examined the response after pretreatment with IFNγ, given that this treatment has been necessary for the IL-23 response to a variety of agents including β-glucan. immDC were cultured in the presence or absence of IFNγ for 18 h prior to addition of PTG, after which supernatants were subjected to cytokine analysis as described above. […] Moreover, these findings provide insight to the mechanisms in which IFNγ counteracts IL-1 dependent TH17 responses. […]

PBMC [3] = assay: PBMC cultures with PTG, β-glucan, IL-1β or α-gliadin peptides; cytokine/chemokine analysis of supernatants
Procedure: We cultured PBMC from HLA-DQ2 positive and HLA-DQ2 negative healthy persons in the presence or absence of 100 ug/ml of PTG or β-D-glucan from barley as a positive control for 20 h. Cell-free culture supernatants were harvested and analyzed for proinflammatory cytokines IL-1β, IL-6, IFNγ, TNFα (Luminex) IL-23 and the TH17 chemokine CCL20/MIP-3α (ELISA).
as §3, §2

monocytes [4] = assay: Purified lymphocytes, monocytes or monocyte-derived DC with PTG, β-glucan or IL-1β
Procedure: IL-23 is only secreted by activated APC such as monocytes, macrophages and DC, which reduces the number of possible cell sources considerably. To determine which of these cell populations was the source of IL-23 in response to PTG, purified lymphocytes, monocytes, or monocyte-derived DC cultured with GM-CSF and IL-4, were incubated in the presence or absence of PTG for 24 h, at which time supernatants were collected for IL-23, IL-1β, IL-6, IFNγ and TNFα analysis. […] Since neither PTG nor β-glucan activated cytokine production in DC differed from monocytes, we examined the response after pretreatment with IFNγ, given that this treatment has been necessary for the IL-23 response to a variety of agents including β-glucan. immDC were cultured in the presence or absence of IFNγ for 18 h prior to addition of PTG, after which supernatants were subjected to cytokine analysis as described above. […] Moreover, these findings provide insight to the mechanisms in which IFNγ counteracts IL-1 dependent TH17 responses.
While IL-1β is produced by many cell types, IL-23 production is thought to be restricted to activated APC. […] To investigate this hypothesis, we exposed purified lymphocytes, monocytes, or monocyte-derived DC (cultured with GM-CSF and IL-4 for 72 h) to PTG overnight and analyzed the cell-free culture supernatants for IL-23 and related “Th17” polarizing mediators.
as §1, with “Cell-free culture supernatants were harvested for cytokine and chemokine analysis.” left out
as §2, with “Appropriate standard curves were included in each assay.” left out

[5] = monocytes, IL-1ra 1 h prior to stimulation
[6] = PBMC, 5 ng/ml IL-1β alone, 20 h

Substance | IL-23, TNFα, IL-6 and CCL20 responses to PTG (monocytes [1]; [5]) | cytokine response to β-glucan (monocytes [1]; [5]) | IL-23 responses to PTG and β-glucan (monocytes [1]; purified monocytes, 0.5 μg/ml IL-1ra, 20 h) | IL-1β and IL-23 responses generated by monocytes exposed to gliadin (monocytes [1]; summary statement) | IL-23 and IL-1β responses to PTG and β-glucan (PBMC [2]; 0.5 μg/ml IL-1ra 1 h prior, stimulation 20 h, mean of 10 experiments) | induction of IL-23 in response to PTG and β-glucan (PBMC [2]; PBMC from CD patients) | levels of IL-1β in PBMC treated with PTG or β-glucan (PBMC [2]; PBMC from CD patients) | IL-23, TNF-α, IL-6 and CCL20 responses to PTG and β-glucan (PBMC [2]; PBMC from healthy individuals, IL-1ra 1 h prior to stimulation, 20 h) | reduction of the IL-1β response (PBMC [2]; PBMC, IL-1ra 1 h prior to PTG or β-glucan, 20 h) [%] | effect on the IL-23/TH17 profile induced by PTG exposure (IFNγ-treated immDC) | CCL20 and IL-6 produced compared with PTG (PBMC [3]; [6]) | IL-23 and TNFα produced compared with PTG (PBMC [3]; [6]) | capacity to stimulate IL-23 production, lower than that of PTG or β-glucan (PBMC [3]; PBMC, 5 ng/ml IL-1β, 20 h, mean of 10 experiments) [fold] | IL-23 production by IL-1β alone relative to PTG and β-glucan (PBMC [3]; PBMC, physiologic concentrations of exogenous IL-1β) | IL-23 response of monocytes to exogenous IL-1β (monocytes [4]; 0.5, 5 or 50 ng/ml rhIL-1β, 20 h) | capacity to activate IL-23 secretion, reduced compared to PTG or β-glucan (monocytes [4]; purified monocytes, 20 h, means of 5 experiments) [fold] | dose dependence of IL-1β and IL-23 production (PBMC [3]; PBMC from CD patients, 25-500 μg/ml, 24 h) | IL-23 response in HLA-DQ2+ compared to HLA-DQ2 negative healthy individuals (PBMC [3]; PBMC, 24 h) | concentration at which detectable levels of IL-23 were achieved (PBMC [3]; dose response curves, PBMC from CD patients, 24 h) [µg/mL] | cell source of IL-23, IL-1β, CCL20, TNFα and IL-6 secretion (monocytes [4]; purified lymphocytes, monocytes, monocyte-derived DC, 100 μg/ml PTG, 24 h)
IL-1ra: naturally occurring anti-inflammatory IL-1 receptor antagonist; recombinant human, purchased from R & D Systems | drastically inhibited | inhibited | significantly inhibited; also recorded: blocks | substantially inhibits | significantly inhibits | completely inhibited | markedly reduced | inhibits; also recorded: almost completely inhibited | ~60 | had no effect | – | – | – | – | – | – | – | – | – | –
IL-1β: recombinant human IL-1β purchased from R & D Systems | – | – | – | – | – | – | – | – | – | had no effect | equivalent concentrations | reduced levels | ~10 | much lower levels | dose dependent manner | ~10 | – | – | – | –
β-D-glucan [β-glucan, reference compound] | – | – | – | – | – | – | – | – | – | – | – | – | – | – | – | – | dose-dependent production | substantially more IL-23; also recorded: more pronounced effect | 500 | confined to monocytes
